# Experimental data published in publication PMC8185074, “Anchor extension: a structure-guided approach to design cyclic peptides targeting enzyme active sites” (Nature Communications, 2021).
# pIC50: −log10 of the molar value. Read-outs that look alike come from different tables or passages of the source. Peptide text beside a SMILES is read from it.
# Columns and labels:
# HDAC2 [1] = biological target: T1, HDAC2 (Homo sapiens, UniProt Q92769); test: Initial HDAC2 IC50 estimate (BPS Biosciences HDAC fluorogenic assay kit); format: biochemical
# T1 construct: purchased Reaction Biology Corporation (assay run by the CRO)
# Method: Initial IC50 values were estimated using HDAC fluorogenic assay kits from BPS Biosciences (HDAC2, HDAC4, and HDAC6) following the protocol described in the kit. All the measures were performed in duplicates or triplicates. These measurements were done either on full range of concentrations (1:10 dilution from 1 µM to 100 pM) or on two concentrations only (20 nM and 200 nM) as an estimate of the range. […] Source Data are provided as a Source Data file.
# HDAC2 [2] = biological target: T1, HDAC2; test: HDAC2 inhibition, full IC50 measurement (Reaction Biology; fluorogenic p53 peptide RHKK(Ac)AMC); format: biochemical
# Method: The assay was performed using 50 μM fluorogenic peptide from p53 residues 379-382 [RHKK(Ac)AMC] in a base reaction buffer of 50 mM Tris-HCl at pH 8.0, 137 mM NaCl, 2.7 mM KCl, 1 mM MgCl2, and freshly added 1 mg/ml BSA and 1% DMSO. Peptides were first dissolved in DMSO and then added to the reaction mixture with the enzyme using acoustic technique, enough to reach the desired concentration for that assay point. Peptide concentrations were calculated based on mass of lyophilized peptide and its molecular weight. The substrate was then added and incubated for 1 hour at 30 °C in a sealed container. After the incubation, developer was added to stop the reaction and develop color. Kinetic measurements were then performed for 20 min with Envision with 5 min intervals (Ex/Em = 360/460 nm). The endpoint after plateau was taken for IC50 measurement.
# In cases where duplicate measures are used, average data is reported in the main text or Supplementary Tables.
# [3] = Supp. Table 4, rough estimates, for promising hits full measurements, read-out: HDAC2 activity (initial values for HDAC2 IC50)
# [4] = Supplementary Dataset 2, read-out: HDAC2 activity (initial activity)
# [5] = HDAC2 activity (initial activity), Supplementary Dataset 2
# [6] = HDAC2 activity (initial values for HDAC2 IC50), Supp. Table 4, rough estimates, for promising hits full measurements
# T1 sequence (Q92769 whole entry): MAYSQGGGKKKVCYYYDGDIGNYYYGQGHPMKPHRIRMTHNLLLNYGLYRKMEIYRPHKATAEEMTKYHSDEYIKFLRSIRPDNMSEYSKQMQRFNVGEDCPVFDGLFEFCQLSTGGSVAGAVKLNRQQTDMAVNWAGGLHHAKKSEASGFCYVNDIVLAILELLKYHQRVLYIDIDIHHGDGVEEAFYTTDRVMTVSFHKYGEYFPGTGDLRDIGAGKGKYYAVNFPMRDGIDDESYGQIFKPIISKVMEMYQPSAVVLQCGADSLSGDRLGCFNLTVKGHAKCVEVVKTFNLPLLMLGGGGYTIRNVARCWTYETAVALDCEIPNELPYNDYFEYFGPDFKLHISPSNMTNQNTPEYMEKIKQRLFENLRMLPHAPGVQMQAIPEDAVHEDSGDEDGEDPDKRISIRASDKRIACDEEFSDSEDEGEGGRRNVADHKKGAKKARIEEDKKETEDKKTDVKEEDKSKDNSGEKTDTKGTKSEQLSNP
Structure (SMILES),pIC50 (HDAC2 [1]; [3]),pIC50 (HDAC2 [1]; [4]),2-Selectivity: fold potency for HDAC2 over HDAC6 (HDAC2 [2]),pIC50 (HDAC2 [1]; [5]),pIC50 (HDAC2 [1]; [6])
"N=C(N)NCCC[C@@H]1NC(=O)[C@@H](CCCNC(=N)N)NC(=O)[C@H]2CCCN2C(=O)[C@@H](Cc2c[nH]cn2)NC(=O)[C@H](Cc2ccc(O)cc2)NC(=O)[C@H](CCCCCS)NC(=O)[C@H](CCc2ccccc2)NC(=O)[C@@H](CCCCN)NC(=O)[C@H](CC(=O)O)NC1=O [des3.2.0, SHA-Tyr-dHis-dPro-dArg-Arg-Asp-dLys-C27] (HELM PEPTIDE1{D.[dK].[O=C([C@H](CCc1ccccc1)N[*:1])[*:2]].[O=C([C@H](CCCCCS)N[*:1])[*:2]].Y.[dH].[dP].[dR].R}$PEPTIDE1,PEPTIDE1,1:R1-9:R2$$$V2.0)",7.55,< 8.00,0.53 fold,,
"N=C(N)NCCC[C@H]1NC(=O)[C@H]2CCCN2C(=O)[C@@H](Cc2c[nH]cn2)NC(=O)[C@H](Cc2ccc(O)cc2)NC(=O)[C@H](CCCCCS)NC(=O)[C@H](CCc2ccccc2)NC(=O)[C@H]2CCCN2C(=O)[C@H](CC(=O)O)NC(=O)[C@@H]2CCCN2C1=O [des3.2.3, SHA-Tyr-dHis-dPro-dArg-Pro-Asp-dPro-C27] (HELM PEPTIDE1{D.[dP].[O=C([C@H](CCc1ccccc1)N[*:1])[*:2]].[O=C([C@H](CCCCCS)N[*:1])[*:2]].Y.[dH].[dP].[dR].P}$PEPTIDE1,PEPTIDE1,1:R1-9:R2$$$V2.0)",,,0.47 fold,7.04,
"C[C@H]1NC(=O)[C@@H](Cc2c[nH]cn2)NC(=O)[C@H](CCCCCS)NC(=O)[C@H](Cc2c[nH]c3ccccc23)NC(=O)[C@@H](CCCNC(=N)N)NC(=O)[C@@H]2CCCN2C(=O)[C@@H](CC(N)=O)NC(=O)[C@@H](CC(N)=O)NC(=O)[C@H](Cc2ccc(O)cc2)NC1=O [des3.6.0, SHA-dHis-dAla-Tyr-dAsn-dAsn-Pro-dArg-Trp] (HELM PEPTIDE1{P.[dR].W.[O=C([C@H](CCCCCS)N[*:1])[*:2]].[dH].[dA].Y.[dN].[dN]}$PEPTIDE1,PEPTIDE1,1:R1-9:R2$$$V2.0)",,,,< 6.00,
"N=C(N)NCCC[C@@H]1NC(=O)[C@@H](CCCNC(=N)N)NC(=O)[C@H]2CCCN2C(=O)[C@@H](CO)NC(=O)[C@H](Cc2ccc(O)cc2)NC(=O)[C@H](CCCCCS)NC(=O)[C@H](CCc2ccccc2)NC(=O)[C@@H](CCC(N)=O)NC(=O)[C@H](CC(=O)O)NC1=O [des3.3.2, SHA-Tyr-dSer-dPro-dArg-Arg-Asp-dGln-C27] (HELM PEPTIDE1{D.[dQ].[O=C([C@H](CCc1ccccc1)N[*:1])[*:2]].[O=C([C@H](CCCCCS)N[*:1])[*:2]].Y.[dS].[dP].[dR].R}$PEPTIDE1,PEPTIDE1,1:R1-9:R2$$$V2.0)",7.24,7.30,3 fold,,
"NCCCC[C@@H]1NC(=O)[C@@H]2CCCN2C(=O)[C@H](CC(N)=O)NC(=O)[C@H](CCCCCS)NC(=O)CNC(=O)[C@H](Cc2c[nH]c3ccccc23)NC(=O)[C@@H](CCCCN)NC(=O)[C@H](CN)NC1=O [des1.1.3, SHA-Asn-Pro-Lys-Dap-dLys-Trp-Gly] (HELM PEPTIDE1{[NC[C@H](N[*:1])C(=O)[*:2]].[dK].W.G.[O=C([C@H](CCCCCS)N[*:1])[*:2]].N.P.K}$PEPTIDE1,PEPTIDE1,1:R1-8:R2$$$V2.0)",,,,7.00,7.00 to 8.00
"N=C(N)NCCC[C@H]1NC(=O)[C@H]2CCCN2C(=O)[C@@H](Cc2c[nH]cn2)NC(=O)[C@H](Cc2ccc(O)cc2)NC(=O)[C@H](CCCCCS)NC(=O)[C@H](CCc2ccccc2)NC(=O)[C@@H](CCCCN)NC(=O)[C@H](CC(=O)O)NC(=O)[C@@H]2CCCN2C1=O [des3.2.2, SHA-Tyr-dHis-dPro-dArg-Pro-Asp-dLys-C27] (HELM PEPTIDE1{D.[dK].[O=C([C@H](CCc1ccccc1)N[*:1])[*:2]].[O=C([C@H](CCCCCS)N[*:1])[*:2]].Y.[dH].[dP].[dR].P}$PEPTIDE1,PEPTIDE1,1:R1-9:R2$$$V2.0)",,7.24,0.41 fold,,
"CCCC[C@H]1NC(=O)[C@@H](CCCCN)NC(=O)[C@H](CCCCCS)NC(=O)[C@@H](C)NC(=O)[C@H](CCCNC(=N)N)NC(=O)[C@@H]([C@H](C)O)NC(=O)[C@@H](CC(N)=O)NC(=O)[C@H](CCC(=O)O)NC1=O [des1.2.0, SHA-dLys-dNle-Glu-dAsn-dThr-Arg-dAla] (HELM PEPTIDE1{E.[dN].[dT].R.[dA].[O=C([C@H](CCCCCS)N[*:1])[*:2]].[dK].[CCCC[C@@H](N[*:1])C(=O)[*:2]]}$PEPTIDE1,PEPTIDE1,1:R1-8:R2$$$V2.0)",,4.00,,,
"N=C(N)NCCC[C@@H]1NC(=O)[C@@H](CCCNC(=N)N)NC(=O)[C@H]2CCCN2C(=O)[C@@H](Cc2c[nH]cn2)NC(=O)[C@H](Cc2ccc(O)cc2)NC(=O)[C@H](CCCCCS)NC(=O)[C@H](CCc2ccccc2)NC(=O)[C@H]2CCCN2C(=O)[C@H](CC(=O)O)NC1=O [des3.2.1, SHA-Tyr-dHis-dPro-dArg-Arg-Asp-dPro-C27] (HELM PEPTIDE1{D.[dP].[O=C([C@H](CCc1ccccc1)N[*:1])[*:2]].[O=C([C@H](CCCCCS)N[*:1])[*:2]].Y.[dH].[dP].[dR].R}$PEPTIDE1,PEPTIDE1,1:R1-9:R2$$$V2.0)",,,0.44 fold,,7.18
"NCCCC[C@@H]1NC(=O)[C@@H]2CCCN2C(=O)[C@H](CC(N)=O)NC(=O)[C@H](CCCCCS)NC(=O)CNC(=O)[C@H](Cc2c[nH]c3ccccc23)NC(=O)[C@@H](CCCCN)NC(=O)[C@H](CO)NC1=O [des1.1.4, SHA-Asn-Pro-Lys-Ser-dLys-Trp-Gly] (HELM PEPTIDE1{G.[O=C([C@H](CCCCCS)N[*:1])[*:2]].N.P.K.S.[dK].W}$PEPTIDE1,PEPTIDE1,1:R1-8:R2$$$V2.0)",,,,7.00,7.00 to 8.00
"C[C@@H]1NC(=O)[C@@H](CCCNC(=N)N)NC(=O)[C@H](CCCCCS)NC(=O)[C@H](CCc2ccccc2)NC(=O)[C@@H](CCCNC(=N)N)NC(=O)[C@@H](Cc2ccccc2)NC(=O)[C@@H](CCC(=O)O)NC(=O)[C@@H](CCCCN)NC(=O)[C@@H]2CCCN2C1=O [des3.10.0, SHA-dArg-Ala-Pro-dLys-dGlu-dPhe-dArg-C27] (HELM PEPTIDE1{A.P.[dK].[dE].[dF].[dR].[O=C([C@H](CCc1ccccc1)N[*:1])[*:2]].[O=C([C@H](CCCCCS)N[*:1])[*:2]].[dR]}$PEPTIDE1,PEPTIDE1,1:R1-9:R2$$$V2.0)",,,,7.00 to 8.00,
"CC(C)C[C@@H]1NC(=O)[C@@H](CCC(=O)O)NC(=O)[C@@H](CC(N)=O)NC(=O)[C@@H](Cc2c[nH]cn2)NC(=O)[C@H](CCCCCS)NC(=O)[C@H](Cc2ccc3ccccc3c2)NC(=O)[C@H](CCCNC(=N)N)NC(=O)[C@@H]2CCCN2C(=O)[C@@H](C)NC1=O [des3.8.0, SHA-dHis-dAsn-dGlu-Leu-dAla-Pro-Arg-B74] (HELM PEPTIDE1{[O=C([C@H](Cc1ccc2ccccc2c1)N[*:1])[*:2]].[O=C([C@H](CCCCCS)N[*:1])[*:2]].[dH].[dN].[dE].L.[dA].P.R}$PEPTIDE1,PEPTIDE1,1:R1-9:R2$$$V2.0)",,,,< 6.00,
